Results as given in US5741671A, “Isolation cloning and expression of transmembrane water channel aquaporin 1(AQP1)” (The Johns Hopkins University, priority 1995, dated 1998).

Key:
control-injected oocytes = test: Xenopus oocyte osmotic swelling assay, control-injected oocytes; format: cell-based, Xenopus laevis; settings: no RNA injected, 0.3 mM HgCl2, 22° C.
Experimental: Expression of AQP1 in Xenopus oocytes. Oocytes were removed from female Xenopus laevis frogs and prepared as described by Dascal (CRC Crit. Rev. Biochem., 1987, 22:317-373). Oocytes were injected with 0.05 microliters of water (control) or the same volume of water containing 1-10 nanograms of AQP1 RNA. The oocytes were incubated for up to 96 hours at 18° C. in modified Barth's buffer (88 mM NaCl, 1 mM KCl, 0.8 mM MgSO4, 0.3 mM Ca(NO3)2, 0.4 mM CaCl2, 2.4 mm NaHCO3, 10 mM HEPES, pH=7.4, total osmolality=200 mOsm/kg) also containing antibiotics. The whole oocytes were then removed and total cellular protein was dissolved in 40 microliters of buffer containing 1% (w/v) SDS and analyzed by immunoblot (Towbin et al., 1979, Proc. Natl. Acad. Sci. USA 76:4350-4354).
A swelling assay was adapted from that of published work (Fischbarg et al., 1990, Proc. Natl. Acad. Sci. USA 87:3244-3247; Zhang et al., 1990, J. Biol. Chem. 265: 15375-15378). […] Swelling was monitored with a Nikon phase-contrast microscope equipped for videorecording. The longest (D1) and shortest (D2) diameters of the oocytes were measured at 15- to 30-second intervals. Oocyte volumes (V) at each time point were calculated relative to volume at the initial observation (Vo): […]

[1] = Stopped-flow osmotic water permeability of control liposomes; format: biochemical; settings: mercurial reagent 1 mM
Experimental: Purified AQP1 was stored overnight at 0° C. or frozen for several days at -80° C. prior to reconstitution. Reconstitution into proteoliposomes was carried out in a final volume of 1 ml containing 60-90 μg of purified AQP1 protein in chromatography buffer, 9 mg of bath-sonicated E. coli phospholipid, 1.25% (w/v) octyl glucoside, and 50 mM Tris-HCl (pH 7.5). The mixture was briefly blended on a vortex mixer and incubated for 20 minutes on ice. […] Protein and phospholipid were measured as described by Ambudkar & Maloney (J. Biol. Chem., 1986, 261:10079-10086).
Permeability measurements. Membrane permeability measurements (Pf) were measured by exposing AQP1 proteoliposomes or control liposomes to an osmotic gradient by rapid mixing with an equal volume of another solution containing buffer A plus sufficient sucrose to increase osmolality in the mixed solutions to a value 120% of that in the original solution. This was performed with a stopped-flow fluorometer (SF.17MV, Applied Photophysics, Leatherhead, U.K.) with a measured dead time of 0.7 ms. […] Extravesicular carboxyfluorescein fluorescence was completely quenched using anti-fluorescein antibody (Harris et al., 1990, Am. J. Physiol. 259:F366-F371). […]

With `[Cl][Hg][Cl]` [HgCl2] the “Pf (osmotic water permeability)” value (control-injected oocytes) was 20.3 cm/s x 10^-4 and the “effect on the Pf of control liposomes” value [1] was “Neither pCMBS nor HgCl2 had any effect”.
